Converted amounts (≈) assume the structure as drawn. Read-outs that look alike come from different tables or passages of the source.
Assays:
[1] = system: quinolone susceptible pneumococci (ciprofloxacin MICs ≦4.0 μg/ml); assay: Agar dilution MICs of 207 quinolone susceptible pneumococcal strains; type: cell-based, Streptococcus pneumoniae; settings: Streptococcus pneumoniae, agar dilution; for MIC90: read-out: MIC90; for MIC: read-out: MIC range
How it was run: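 Agar dilution MICs by prior methods on Mueller-Hinton agar with 5% sheep blood; S. pneumoniae ATCC 49619 among QC strains each run. Isolates were recent U.S. strains plus some from South Africa, Europe and Korea.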

[2] = system: pneumococci with ciprofloxacin MICs ≧8 μg/ml; assay: Quinolone agar dilution MICs of 28 ciprofloxacin resistant pneumococcal strains, correlated with QRDR mutations; type: cell-based, Streptococcus pneumoniae
Procedure: Additionally these strains were tested for mutations in parC, gyrA, parE, and gyrB (Pan, et al. Antimicrob. Agents Chemother. 40:2321-2326, 1996) and for efflux mechanism (Brenwald, et ail., Antimicrob. Agents Chemother. 42:2032-2035, 1998).
Gemifloxacin susceptibility powder was obtained from SmithKline Beecham Laboratories, Harlow, UK. Agar dilution methodology was performed on 28 strains as described previously (M. R. Jacobs, Clin. Infect. Dis. 15: 119-127, […] and M. R. Jacobs, Rev. Med. Microbiol. 6:77-93, 1995), using Mueller-Hinton altar (BBL Microbiology Systems, Cockeysville, Md.) supplemented with 5% sheep blood. Standard quality control strains, including Streptococcus pneumoniae ATCC 49619, were included in each run of agar dilution MICs.

pneumococcal strains = assay: Microbroth dilution MICs of strains tested by time-kill and PAE; type: cell-based; settings: Streptococcus pneumoniae, read-out: Microdilution MIC
How it was run: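 Broth MICs per NCCLS in cation-adjusted Mueller-Hinton broth with 5% lysed defibrinated horse blood. Used for 12 time-kill and 6 PAE strains. S. pneumoniae ATCC 49619 run as quality control.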

[3] = system: pneumococci (5 quinolone susceptible and 1 resistant strains); assay: Post-antibiotic effect (PAE) testing; type: cell-based, Streptococcus pneumoniae
How it was run: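 Pneumococci (~5×10^6 cfu/ml) in MHB with 5% lysed horse blood were exposed 1 h at 35 °C, the quinolone-resistant strain at 5×MIC, then diluted 1:1000. Viable counts every 2 h until McFarland #1 turbidity. PAE = T − C, the 1 log10 regrowth time versus untreated control; mean of two assays ±SD.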

Question: Which results are given for `N[C@@H]1[C@H]2CN(c3nc4c(cc3F)c(=O)c(C(=O)O)cn4-c3ccc(F)cc3F)C[C@@H]12` [Trovafloxacin, trovafloxacin]?
Answer: MIC50 ([1]; Penicillin I strains): 0.125 µg/mL (≈ 0.3 µM); MIC90 ([1]; Penicillin I strains): 0.25 µg/mL (≈ 0.6 µM); MIC ([1]; Penicillin I strains): 0.016 to 1 µg/mL (≈ 0.0384 to 2.4 µM); MIC50 ([1]; Penicillin R strains): 0.125 µg/mL (≈ 0.3 µM); MIC90 ([1]; Penicillin R strains): 0.25 µg/mL (≈ 0.6 µM); MIC ([1]; Penicillin R strains): 0.03 to 0.25 µg/mL (≈ 0.0721 to 0.6 µM); MIC50 ([1]; Penicillin S strains): 0.125 µg/mL (≈ 0.3 µM); MIC90 ([1]; Penicillin S strains): 0.25 µg/mL (≈ 0.6 µM); MIC ([1]; Penicillin S strains): 0.03 to 0.5 µg/mL (≈ 0.0721 to 1.2 µM); MIC90 ([1]; all 207 strains (64 penicillin susceptible, 68 intermediate, 75 resistant)): 0.25 µg/mL (≈ 0.6 µM); MIC50 ([2]; Streptococcus pneumoniae): 1 µg/mL (≈ 2.4 µM); MIC90 ([2]; Streptococcus pneumoniae): 4 µg/mL (≈ 9.61 µM); MIC ([2]; Streptococcus pneumoniae, read-out: MICs in strains with three or four QRDR mutations, 20 strains, bound holds in all 20 (ciprofloxacin, levofloxacin, sparfloxacin), 19 (grepafloxacin), 10 (trovafloxacin), 18 (gemifloxacin)): > 2 µg/mL; MIC ([2]; Streptococcus pneumoniae, read-out: MICs in strains with three or four QRDR mutations, 21 strains, bound holds in all 21 (ciprofloxacin, levofloxacin, sparfloxacin), 20 (grepafloxacin), 11 (trovafloxacin), 19 (gemifloxacin)): ≥ 2 µg/mL; MIC ([2]; Streptococcus pneumoniae, strain 1, ParC S79-F, ParE I460-V, GyrA S81-F, GyrB None): 2 µg/mL (≈ 4.8 µM); MIC ([2]; Streptococcus pneumoniae, strain 1, ParC S79-F, ParE I460-V, GyrA S83-F, GyrB None): 2 µg/mL (≈ 4.8 µM); MIC ([2]; Streptococcus pneumoniae, strain 2, ParC S79-Y, ParE I460-V, GyrA None, GyrB None): 0.25 µg/mL (≈ 0.6 µM); MIC ([2]; Streptococcus pneumoniae, strain 3, ParC D83-N, ParE I460-V, GyrA S81-F, GyrB None): 0.25 µg/mL (≈ 0.6 µM); MIC ([2]; Streptococcus pneumoniae, strain 3, ParC D83-N, ParE I460-V, GyrA S83-F, GyrB None): 0.25 µg/mL (≈ 0.6 µM); MIC ([2]; Streptococcus pneumoniae, strain 4, ParC S79-F, ParE I460-V, GyrA S81-F, GyrB None): 0.25 µg/mL (≈ 0.6 µM); MIC ([2]; Streptococcus pneumoniae, strain 4, ParC S79-F, ParE I460-V, GyrA S83-F, GyrB None): 0.25 µg/mL (≈ 0.6 µM); MIC ([2]; Streptococcus pneumoniae, strain 5, ParC R95-C, ParE D435-N, GyrA S81-F, GyrB None): 0.25 µg/mL (≈ 0.6 µM); MIC ([2]; Streptococcus pneumoniae, strain 5, ParC R95-C, ParE D435-N, GyrA S83-F, GyrB None): 0.25 µg/mL (≈ 0.6 µM); MIC ([2]; Streptococcus pneumoniae, strain 6, ParC S79-Y, ParE I460-V, GyrA E85-K, GyrB None): 2 µg/mL (≈ 4.8 µM); MIC ([2]; Streptococcus pneumoniae, strain 6, ParC S79-Y, ParE I460-V, GyrA E87-K, GyrB None): 2 µg/mL (≈ 4.8 µM); MIC ([2]; Streptococcus pneumoniae, strain 7, ParC None, ParE I460-V, GyrA None, GyrB None): 0.5 µg/mL (≈ 1.2 µM); MIC ([2]; Streptococcus pneumoniae, strain 8, ParC S79-Y, ParE None, GyrA None, GyrB None): 0.5 µg/mL (≈ 1.2 µM); MIC ([2]; Streptococcus pneumoniae, strain 9, ParC S79-Y, ParE None, GyrA None, GyrB None): 1 µg/mL (≈ 2.4 µM); MIC ([2]; Streptococcus pneumoniae, strain 10, ParC S79-F, ParE I460-V, GyrA S81-C, GyrB None): 1 µg/mL (≈ 2.4 µM); MIC ([2]; Streptococcus pneumoniae, strain 10, ParC S79-F, ParE I460-V, GyrA S83-C, GyrB None): 1 µg/mL (≈ 2.4 µM); MIC ([2]; Streptococcus pneumoniae, strain 11, ParC S79-F, ParE I460-V, GyrA S81-F, GyrB None): 1 µg/mL (≈ 2.4 µM); MIC ([2]; Streptococcus pneumoniae, strain 11, ParC S79-F, ParE I460-V, GyrA S83-F, GyrB None): 1 µg/mL (≈ 2.4 µM); MIC ([2]; Streptococcus pneumoniae, strain 12, ParC S79-F, ParE I460-V, GyrA None, GyrB D435-N): 1 µg/mL (≈ 2.4 µM); MIC ([2]; Streptococcus pneumoniae, strain 13, ParC S79-F, ParE I460-V, GyrA None, GyrB E474-K): 1 µg/mL (≈ 2.4 µM); MIC ([2]; Streptococcus pneumoniae, strain 14, ParC S79-F, ParE I460-V, GyrA S81-F, GyrB None): 1 µg/mL (≈ 2.4 µM); MIC ([2]; Streptococcus pneumoniae, strain 14, ParC S79-F, ParE I460-V, GyrA S83-F, GyrB None): 1 µg/mL (≈ 2.4 µM); MIC ([2]; Streptococcus pneumoniae, strain 15, ParC 79-F, ParE I460-V, GyrA S83-F, GyrB None): 1 µg/mL (≈ 2.4 µM); MIC ([2]; Streptococcus pneumoniae, strain 15, ParC S79-F, ParE I460-V, GyrA S81-F, GyrB None): 1 µg/mL (≈ 2.4 µM); MIC ([2]; Streptococcus pneumoniae, strain 16, ParC S79-F, ParE I460-V, GyrA S81-F, GyrB None): 2 µg/mL (≈ 4.8 µM); MIC ([2]; Streptococcus pneumoniae, strain 16, ParC S79-F, ParE I460-V, GyrA S83-F, GyrB None): 2 µg/mL (≈ 4.8 µM); MIC ([2]; Streptococcus pneumoniae, strain 17, ParC D83-N, ParE None, GyrA S81-F, GyrB None): 2 µg/mL (≈ 4.8 µM); MIC ([2]; Streptococcus pneumoniae, strain 17, ParC D83-N, ParE None, GyrA S83-F, GyrB None): 2 µg/mL (≈ 4.8 µM); MIC ([2]; Streptococcus pneumoniae, strain 18, ParC S79-F, ParE I460-V, GyrA S81-F, GyrB None): 2 µg/mL (≈ 4.8 µM); MIC ([2]; Streptococcus pneumoniae, strain 18, ParC S79-F, ParE I460-V, GyrA S83-F, GyrB None): 2 µg/mL (≈ 4.8 µM); MIC ([2]; Streptococcus pneumoniae, strain 19, ParC S79-F, ParE I460-V, GyrA S81-F, GyrB None): 2 µg/mL (≈ 4.8 µM); MIC ([2]; Streptococcus pneumoniae, strain 19, ParC S79-F, ParE I460-V, GyrA S83-F, GyrB None): 2 µg/mL (≈ 4.8 µM); MIC ([2]; Streptococcus pneumoniae, strain 20, ParC S79-F, ParE I460-V, GyrA E85-K, GyrB None): 2 µg/mL (≈ 4.8 µM); MIC ([2]; Streptococcus pneumoniae, strain 20, ParC S79-F, ParE I460-V, GyrA E87-K, GyrB None): 2 µg/mL (≈ 4.8 µM); MIC ([2]; Streptococcus pneumoniae, strain 21, ParC S79-F, ParE I460-V, GyrA S81-F, GyrB None): 1 µg/mL (≈ 2.4 µM); MIC ([2]; Streptococcus pneumoniae, strain 21, ParC S79-F, ParE I460-V, GyrA S83-F, GyrB None): 1 µg/mL (≈ 2.4 µM); MIC ([2]; Streptococcus pneumoniae, strain 22, ParC S79-F, ParE I460-V, GyrA S81-Y, GyrB None): 2 µg/mL (≈ 4.8 µM); MIC ([2]; Streptococcus pneumoniae, strain 22, ParC S79-F, ParE I460-V, GyrA S83-Y, GyrB None): 2 µg/mL (≈ 4.8 µM); MIC ([2]; Streptococcus pneumoniae, strain 23, ParC S79-Y, ParE None, GyrA S81-A, GyrB None): 2 µg/mL (≈ 4.8 µM); MIC ([2]; Streptococcus pneumoniae, strain 23, ParC S79-Y, ParE None, GyrA S83-A, GyrB None): 2 µg/mL (≈ 4.8 µM); MIC Range ([2]; agar dilution, 28 strains with ciprofloxacin MICs ≧8.0 μg/ml): 0.25 to 8 µg/mL; MIC (pneumococcal strains; strain 1 (S) penicillin susceptible): 0.06 µg/mL (≈ 0.144 µM); MIC (pneumococcal strains; strain 2 (S) penicillin susceptible): 0.06 µg/mL (≈ 0.144 µM); MIC (pneumococcal strains; strain 3 (S) penicillin susceptible, quinolone-resistant): 8 µg/mL (≈ 19.2 µM); MIC (pneumococcal strains; strain 4 (S) penicillin susceptible, quinolone-resistant): 4 µg/mL (≈ 9.61 µM); MIC (pneumococcal strains; strain 5 (I) penicillin intermediate): 0.06 µg/mL (≈ 0.144 µM); MIC (pneumococcal strains; strain 6 (I) penicillin intermediate): 0.06 µg/mL (≈ 0.144 µM); MIC (pneumococcal strains; strain 7 (I) penicillin intermediate): 0.06 µg/mL (≈ 0.144 µM); MIC (pneumococcal strains; strain 8 (I) penicillin intermediate): 0.125 µg/mL (≈ 0.3 µM); MIC (pneumococcal strains; strain 9 (R) penicillin resistant): 0.125 µg/mL (≈ 0.3 µM); MIC (pneumococcal strains; strain 10 (I)): 0.06 µg/mL (≈ 0.144 µM); MIC (pneumococcal strains; strain 11 (R) penicillin resistant): 0.06 µg/mL (≈ 0.144 µM); MIC (pneumococcal strains; strain 12 (R) penicillin resistant): 0.125 µg/mL (≈ 0.3 µM); PAE ([3]; 5×MIC, quinolone resistant strain): 1.3 h; PAE ([3]; 10×MIC for 1 h, range over 5 quinolone susceptible strains): 0.3 to 3.0 h
